{"source": "patent US11053204B2", "about": "“Pyrimidinyloxy benzene derivatives as herbicides” (FMC Corporation, priority 2015, dated 2021)", "format_in_all_cases": "in vivo", "key": {"[1]": {"test_system": "oat, wild (wild oat Avena fatua)", "test": "Test C preemergence, plant response rating"}, "[2]": {"test_system": "wild poinsettia (Euphorbia heterophylla)", "test": "Test C preemergence, plant response rating"}, "[3]": {"test_system": "sedge, umbrella (small-flower umbrella sedge, Cyperus difformis)", "test": "Test B flooded paddy test, plant response rating", "conditions": "250 g ai/ha; Flood; scale of 0 to 100 where 0 is no effect and 100 is complete control; 13 to 15 days", "how_it_was_run": "(§1)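 Visual injury ratings against untreated controls, taken 13 to 15 days after compound was added to paddy water standing 3 cm above the soil.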"}, "rice (Oryza sativa)": {"test_system": "rice (Oryza sativa)", "test": "Test B flooded paddy test, plant response rating", "conditions": "250 g ai/ha; Flood; scale of 0 to 100 where 0 is no effect and 100 is complete control; 13 to 15 days", "how_it_was_run": "as §1"}, "[4]": {"test_system": "barnyardgrass (Echinochloa crus-galli)", "test": "Test B flooded paddy test, plant response rating", "conditions": "250 g ai/ha; Flood; scale of 0 to 100 where 0 is no effect and 100 is complete control; 13 to 15 days", "how_it_was_run": "as §1"}, "[5]": {"test_system": "foxtail, giant (giant foxtail, Setaria faberii)", "test": "Test C preemergence, plant response rating", "conditions": "Preemergence", "how_it_was_run": "(§2)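 Pre-emergence: seeds sown in loam soil–sand blend or silt loam and sprayed with test chemicals in a non-phytotoxic solvent mixture with surfactant. Post-emergence: plants 2 to 18 cm (1- to 4-leaf stage) in peat-based potting medium, same formulation. Greenhouse 13 to 15 d; visual rating 0 (no effect) to 100 (complete control) versus controls.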"}, "[6]": {"test_system": "wheat (winter wheat, Triticum aestivum)", "test": "Test C preemergence, plant response rating", "conditions": "Preemergence", "how_it_was_run": "as §2"}, "[7]": {"test_system": "nutsedge, yellow (yellow nutsedge, Cyperus esculentus)", "test": "Test C preemergence, plant response rating", "conditions": "Preemergence", "how_it_was_run": "as §2"}, "soybean (Glycine max)": {"test_system": "soybean (Glycine max)", "test": "Test C preemergence, plant response rating", "conditions": "Preemergence", "how_it_was_run": "as §2"}, "corn (Zea mays)": {"test_system": "corn (Zea mays)", "test": "Test C preemergence, plant response rating", "conditions": "Preemergence", "how_it_was_run": "as §2"}, "[8]": {"test_system": "velvetleaf (Abutilon theophrasti)", "test": "Test C preemergence, plant response rating", "conditions": "Preemergence", "how_it_was_run": "as §2"}, "[9]": {"test_system": "ragweed (common ragweed, Ambrosia elatior)", "test": "Test C preemergence, plant response rating", "conditions": "Preemergence", "how_it_was_run": "as §2"}, "[10]": {"test_system": "lambsquarters (Chenopodium album)", "test": "Test C preemergence, plant response rating", "conditions": "Preemergence", "how_it_was_run": "as §2"}, "[11]": {"test_system": "oilseed rape (Brassica napus)", "test": "Test C preemergence, plant response rating", "conditions": "Preemergence", "how_it_was_run": "as §2"}, "[12]": {"test_system": "blackgrass (Alopecurus myosuroides)", "test": "Test C preemergence, plant response rating", "conditions": "Preemergence", "how_it_was_run": "as §2"}, "[13]": {"test_system": "ryegrass, Italian (Italian ryegrass, Lolium multiflorum)", "test": "Test C preemergence, plant response rating", "conditions": "Preemergence", "how_it_was_run": "as §2"}, "[14]": {"test_system": "crabgrass, large (large crabgrass, Digitaria sanguinalis)", "test": "Test C preemergence, plant response rating", "conditions": "Preemergence", "how_it_was_run": "as §2"}, "[15]": {"test_system": "waterhemp (common waterhemp, Amaranthus rudis)", "test": "Test C preemergence, plant response rating", "conditions": "Preemergence", "how_it_was_run": "as §2"}, "[16]": {"test_system": "morningglory (Ipomoea coccinea)", "test": "Test C preemergence, plant response rating", "conditions": "Preemergence", "how_it_was_run": "as §2"}, "[17]": {"test_system": "surinam grass (Brachiaria decumbens)", "test": "Test C preemergence, plant response rating"}}, "data": [{"smiles": "FC(F)(F)CCCc1c(Br)cccc1Oc1ncc(Cl)cn1", "note": "[Compound 89]", "values": [{"measurement": "Plant response rating, Oat, Wild", "setting": "[1]; 31 g ai/ha, scale 0 to 100", "value": 10}, {"measurement": "Plant response rating, Oat, Wild", "setting": "[1]; 62 g ai/ha, scale 0 to 100", "value": 30}, {"measurement": "Plant response rating, Oat, Wild", "setting": "[1]; 125 g ai/ha, scale of 0 to 100", "value": 10}, {"measurement": "Plant response rating, Poinsettia, Wild", "setting": "[2]; 31 g ai/ha, scale 0 to 100", "value": 0}, {"measurement": "Plant response rating, Poinsettia, Wild", "setting": "[2]; 62 g ai/ha, scale 0 to 100", "value": 20}, {"measurement": "Plant response rating, Poinsettia, Wild", "setting": "[2]; 125 g ai/ha, scale of 0 to 100", "value": 40}, {"measurement": "Plant response rating, Sedge, Umbrella", "setting": "[3]", "value": 95}, {"measurement": "Plant response rating, Rice", "setting": "rice (Oryza sativa)", "value": 40}, {"measurement": "Plant response rating, Barnyardgrass", "setting": "[4]", "value": 40}, {"measurement": "Plant response rating, Foxtail, Giant", "setting": "[5]; 125 g ai/ha, scale of 0 to 100", "value": 85}, {"measurement": "Plant response rating, Foxtail, Giant", "setting": "[5]; 31 g ai/ha, scale 0 to 100", "value": 5}, {"measurement": "Plant response rating, Foxtail, Giant", "setting": "[5]; 62 g ai/ha, scale 0 to 100", "value": 60}, {"measurement": "Plant response rating, Wheat", "setting": "[6]; 125 g ai/ha, scale of 0 to 100", "value": 5}, {"measurement": "Plant response rating, Wheat", "setting": "[6]; 31 g ai/ha, scale 0 to 100", "value": 0}, {"measurement": "Plant response rating, Wheat", "setting": "[6]; 62 g ai/ha, scale 0 to 100", "value": 0}, {"measurement": "Plant response rating, Nutsedge, Yellow", "setting": "[7]; 125 g ai/ha, scale of 0 to 100", "value": 0}, {"measurement": "Plant response rating, Nutsedge, Yellow", "setting": "[7]; 31 g ai/ha, scale 0 to 100", "value": 0}, {"measurement": "Plant response rating, Nutsedge, Yellow", "setting": "[7]; 62 g ai/ha, scale 0 to 100", "value": 0}, {"measurement": "Plant response rating, Soybean", "setting": "soybean (Glycine max); 125 g ai/ha, scale of 0 to 100", "value": 10}, {"measurement": "Plant response rating, Soybean", "setting": "soybean (Glycine max); 31 g ai/ha, scale 0 to 100", "value": 5}, {"measurement": "Plant response rating, Soybean", "setting": "soybean (Glycine max); 62 g ai/ha, scale 0 to 100", "value": 5}, {"measurement": "Plant response rating, Corn", "setting": "corn (Zea mays); 125 g ai/ha, scale of 0 to 100", "value": 10}, {"measurement": "Plant response rating, Corn", "setting": "corn (Zea mays); 16 g ai/ha, scale 0 to 100", "value": 0}, {"measurement": "Plant response rating, Corn", "setting": "corn (Zea mays); 31 g ai/ha, scale 0 to 100", "value": 0}, {"measurement": "Plant response rating, Corn", "setting": "corn (Zea mays); 62 g ai/ha, scale 0 to 100", "value": 0}, {"measurement": "Plant response rating, Velvetleaf", "setting": "[8]; 125 g ai/ha, scale of 0 to 100", "value": 60}, {"measurement": "Plant response rating, Velvetleaf", "setting": "[8]; 31 g ai/ha, scale 0 to 100", "value": 20}, {"measurement": "Plant response rating, Velvetleaf", "setting": "[8]; 62 g ai/ha, scale 0 to 100", "value": 25}, {"measurement": "Plant response rating, Ragweed", "setting": "[9]; 125 g ai/ha, scale of 0 to 100", "value": 50}, {"measurement": "Plant response rating, Ragweed", "setting": "[9]; 31 g ai/ha, scale 0 to 100", "value": 0}, {"measurement": "Plant response rating, Ragweed", "setting": "[9]; 62 g ai/ha, scale 0 to 100", "value": 5}, {"measurement": "Plant response rating, Lambsquarters", "setting": "[10]; 125 g ai/ha, scale of 0 to 100", "value": 65}, {"measurement": "Plant response rating, Lambsquarters", "setting": "[10]; 31 g ai/ha, scale 0 to 100", "value": 0}, {"measurement": "Plant response rating, Lambsquarters", "setting": "[10]; 62 g ai/ha, scale 0 to 100", "value": 0}, {"measurement": "Plant response rating, Oilseed Rape", "setting": "[11]; 125 g ai/ha, scale of 0 to 100", "value": 15}, {"measurement": "Plant response rating, Oilseed Rape", "setting": "[11]; 31 g ai/ha, scale 0 to 100", "value": 0}, {"measurement": "Plant response rating, Oilseed Rape", "setting": "[11]; 62 g ai/ha, scale 0 to 100", "value": 0}, {"measurement": "Plant response rating, Blackgrass", "setting": "[12]; 125 g ai/ha, scale of 0 to 100", "value": 90}, {"measurement": "Plant response rating, Blackgrass", "setting": "[12]; 16 g ai/ha, scale 0 to 100", "value": 5}, {"measurement": "Plant response rating, Blackgrass", "setting": "[12]; 31 g ai/ha, scale 0 to 100", "value": 15}, {"measurement": "Plant response rating, Blackgrass", "setting": "[12]; 62 g ai/ha, scale 0 to 100", "value": 85}, {"measurement": "Plant response rating, Ryegrass, Italian", "setting": "[13]; 125 g ai/ha, scale of 0 to 100", "value": 40}, {"measurement": "Plant response rating, Ryegrass, Italian", "setting": "[13]; 31 g ai/ha, scale 0 to 100", "value": 5}, {"measurement": "Plant response rating, Ryegrass, Italian", "setting": "[13]; 62 g ai/ha, scale 0 to 100", "value": 15}, {"measurement": "Plant response rating, Crabgrass, Large", "setting": "[14]; 125 g ai/ha, scale of 0 to 100", "value": 98}, {"measurement": "Plant response rating, Crabgrass, Large", "setting": "[14]; 16 g ai/ha, scale 0 to 100", "value": 75}, {"measurement": "Plant response rating, Crabgrass, Large", "setting": "[14]; 31 g ai/ha, scale 0 to 100", "value": 98}, {"measurement": "Plant response rating, Crabgrass, Large", "setting": "[14]; 62 g ai/ha, scale 0 to 100", "value": 100}, {"measurement": "Plant response rating, Waterhemp", "setting": "[15]; 125 g ai/ha, scale of 0 to 100", "value": 100}, {"measurement": "Plant response rating, Waterhemp", "setting": "[15]; 31 g ai/ha, scale 0 to 100", "value": 85}, {"measurement": "Plant response rating, Waterhemp", "setting": "[15]; 62 g ai/ha, scale 0 to 100", "value": 100}, {"measurement": "Plant response rating, Morningglory", "setting": "[16]; 125 g ai/ha, scale of 0 to 100", "value": 20}, {"measurement": "Plant response rating, Morningglory", "setting": "[16]; 31 g ai/ha, scale 0 to 100", "value": 0}, {"measurement": "Plant response rating, Morningglory", "setting": "[16]; 62 g ai/ha, scale 0 to 100", "value": 5}, {"measurement": "Plant response rating, Surinam Grass", "setting": "[17]; 31 g ai/ha, scale 0 to 100", "value": 35}, {"measurement": "Plant response rating, Surinam Grass", "setting": "[17]; 62 g ai/ha, scale 0 to 100", "value": 65}, {"measurement": "Plant response rating, Surinam Grass", "setting": "[17]; 125 g ai/ha, scale of 0 to 100", "value": 75}]}]}
